One assay addresses T1, Raf-1 (c-Raf) (Homo sapiens, UniProt P04049).
T1 construct: Sf9 insect cell lysate containing full length 6his-tagged recombinant human c-Raf; 6his; host or cells: Sf9 insect cells (c-Raf, used as lysate); E. coli (GST-MEK1, GST-MAPK)
Nature of the assay: Raf1 Kinase Cascade Assay. The format is biochemical. The protocol:
(Specific Activity: -200U/ml). Human Non-active Mek-1-GST and human GST-MAP kinase (recombinant proteins produced in E. coli).
• Assay Dilution Buffer (ADB); 20mM MOPS, pH 7.2, 25mM β-glycerol phosphate, 5mM EGTA, 1mM sodium orthovanadate, 1mM dithiothreitol. • Magnesium/ATP Cocktail: 500µM cold ATP and 75 mM magnesium chloride in ADB. • Active Kinase: Human Active c-Raf: Use at 0.4U per assay point. • Non-active GST-MEK1: Use at 0.1 µg per assay point. • Non-active GST-p42 MAP Kinase: Use at 1.0 µg per assay point.
• TBST - Tris (50 mM, pH 7.5), NaCl (150 mM), Tween-20 (0.05 %) • Superblock (Pierce) • Anti-GST Ab (Pharmacia) • Anti-Phospho MAPK (Sigma) • Anti-Mouse Ab / Europium conjugate (Wallac)
IC50 determinations - done on compounds from single point assays with >80% inhibition. Typically Raf-1 assay is run at compound concentrations from 10 µM to 30 nM in half log dilutions. (% inhibition is determined for each compound concentration).

For assay [1], the system named is human adenocarcinoma cell line CaCo-2. Nature of the assay: Cell Based Screen for Inhibitors of Raf Kinase, CaCo-2 cells. Particulars: CaCo-2, four days, SRB.
For assay [2], the system named is Human adenocarcinoma cell line LoVo. Nature of the assay: Cell Based Screen for Inhibitors of Raf Kinase, LoVo cells. Particulars: four days, SRB.

As usually defined, the IC50 is the point on the concentration scale where inhibition reaches its midpoint. A high value points to weaker potency in that assay. On to `Cn1ccnc1Sc1ccc(Nc2c(C#N)cnc3cc(-c4ccc(CN5CCOCC5)cc4)ccc23)cc1Cl` [Example 138], for which the IC50 turned out to be 5.6 nM on Raf-1 (c-Raf), 810 nM in assay [1] and 6.2 nM in assay [2].

Turning to “4-({3-chloro-4-[(1-methyl-1H-imidazol-2-yl)sulfanyl]phenyl}amino) -7-[5-(1-pyridinyl]-3-quinolinecarbonitrile [Example 180]”, the IC50 on Raf-1 (c-Raf) is 3.7 nM; in assay [1] it was 930 nM; in assay [2] it was 5.6 nM.

Source of the values: patent EP1268431B1 (Wyeth, priority 2000, dated 2001).
